{"source": "PubChem BioAssay AID1259411", "about": "(Chemical Carcinogenesis Research Information System (CCRIS), 2018)", "test_system": "rodent carcinogenicity bioassays, tumor incidence", "test": "CCRIS carcinogenicity studies", "details": "Dose: 0, Dose: 0", "summary_of_the_method": "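Archive of carcinogenicity, mutagenicity, tumor promotion and tumor inhibition results drawn from journals, NCI reports and other sources, expert-reviewed; covers 1985-2011 and is no longer updated.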", "note": "The source made the active and inactive calls. The rule behind the calls is not given here.", "data": [{"smiles": "CC(O)c1ccccc1", "note": "(stereo not given)", "values": [{"measurement": "carcinogen call", "setting": "Species: MOUSE, Strain/Sex: B6C3F1/FEMALE, Route: GAVAGE, 375, 750 MG/KG IN CORN OIL 5 D/WK FOR 103 WK (STUDY DURATION: 104 WK), 375, 750 MG/KG IN CORN OIL 5 D/WK FOR 103 WK (STUDY DURATION: 104 WK)", "value": "inactive; negative"}, {"measurement": "carcinogen call", "setting": "Species: MOUSE, Strain/Sex: B6C3F1/MALE, Route: GAVAGE, 375, 750 MG/KG IN CORN OIL 5 D/WK FOR 103 WK (STUDY DURATION: 104 WK), 375, 750 MG/KG IN CORN OIL 5 D/WK FOR 103 WK (STUDY DURATION: 104 WK)", "value": "inactive; negative"}, {"measurement": "carcinogen call", "setting": "Species: RAT, Strain/Sex: F344/FEMALE, Route: GAVAGE, 375, 750 MG/KG IN CORN OIL 5 D/WK FOR 103 WK (STUDY DURATION: 105 WK), 375, 750 MG/KG IN CORN OIL 5 D/WK FOR 103 WK (STUDY DURATION: 105 WK)", "value": "inactive; negative"}, {"measurement": "carcinogen call", "setting": "Species: RAT, Strain/Sex: F344/MALE, Route: GAVAGE, 375, 750 MG/KG IN CORN OIL 5 D/WK FOR 103 WK (STUDY DURATION: 105 WK), 375, 750 MG/KG IN CORN OIL 5 D/WK FOR 103 WK (STUDY DURATION: 105 WK), Tumor Site: Type of Lesion: KIDNEY: TUBULAR CELL ADENOMA, TUBULAR CELL ADENOMA OR ADENOCARCINOMA", "value": "active; positive"}]}, {"smiles": "[Cl][Sn][Cl]", "values": [{"measurement": "carcinogen call", "setting": "Species: MOUSE, Strain/Sex: B6C3F1/FEMALE, Route: ORAL, 1000, 2000 PPM IN DIET FOR 105 WK (STUDY DURATION: 105 WK), 1000, 2000 PPM IN DIET FOR 105 WK (STUDY DURATION: 105 WK)", "value": "inactive; negative"}, {"measurement": "carcinogen call", "setting": "Species: MOUSE, Strain/Sex: B6C3F1/MALE, Route: ORAL, 1000, 2000 PPM IN DIET FOR 105 WK (STUDY DURATION: 105 WK), 1000, 2000 PPM IN DIET FOR 105 WK (STUDY DURATION: 105 WK)", "value": "inactive; negative"}, {"measurement": "carcinogen call", "setting": "Species: RAT, Strain/Sex: F344/FEMALE, Route: ORAL, 1000, 2000 PPM IN DIET FOR 105 WK (STUDY DURATION: 105 WK), 1000, 2000 PPM IN DIET FOR 105 WK (STUDY DURATION: 105 WK)", "value": "inactive; negative"}, {"measurement": "carcinogen call", "setting": "Species: RAT, Strain/Sex: F344/MALE, Route: ORAL, 1000, 2000 PPM IN DIET FOR 105 WK (STUDY DURATION: 105 WK), 1000, 2000 PPM IN DIET FOR 105 WK (STUDY DURATION: 105 WK), Tumor Site: Type of Lesion: THYROID GLAND: C-CELL ADENOMA, C-CELL ADENOMA OR CARCINOMA", "value": "equivocal"}]}, {"smiles": "OC(c1ccc(Cl)cc1)(c1cncnc1)c1ccccc1Cl", "note": "(stereo not given)", "values": [{"measurement": "carcinogen call", "setting": "Species: Rat, Strain/Sex: Wistar/Female (120/Control group; 80/Experimental group), Route: Oral, 50, 130, 350 ppm in diet for 24 mo, study duration 24 mo, 50, 130, 350 ppm in diet for 24 mo, study duration 24 mo", "value": "inactive; negative (nonstatistical increase in hepatocellular adenomas)"}, {"measurement": "carcinogen call", "setting": "Species: Rat, Strain/Sex: Wistar/Male (120/Control group; 80/Experimental group), Route: Oral, 50, 130, 350 ppm in diet for 24 mo, study duration 24 mo, 50, 130, 350 ppm in diet for 24 mo, study duration 24 mo", "value": "inactive; negative (nonstatistical increase in hepatocellular adenomas)"}]}, {"smiles": "C=CC(=O)OC(C)COCC(C)OCC(C)OC(=O)C=C", "note": "(stereo not given)", "values": [{"measurement": "carcinogen call", "setting": "Species: MOUSE, Strain/Sex: TG.AC/FEMALE, Route: DERMAL, 1, 5, 10 UMOL IN 200 µL ACETONE 3/WK FOR 20 WK (STUDY DURATION: 20 WK), 1, 5, 10 UMOL IN 200 µL ACETONE 3/WK FOR 20 WK (STUDY DURATION: 20 WK), Tumor Site: Type of Lesion: SKIN: PAPILLOMA", "value": "active; positive"}]}, {"smiles": "CN(C)C=O", "values": [{"measurement": "carcinogen call", "setting": "Species: MOUSE, Strain/Sex: CRL:CD-1(ICR)BR/FEMALE, Route: INHALATION, 25, 100, 400 PPM 6 HR/D 5 D/WK FOR 18 MO (STUDY DURATION: 18 MO), 25, 100, 400 PPM 6 HR/D 5 D/WK FOR 18 MO (STUDY DURATION: 18 MO)", "value": "inactive; negative"}, {"measurement": "carcinogen call", "setting": "Species: MOUSE, Strain/Sex: CRL:CD-1(ICR)BR/MALE, Route: INHALATION, 25, 100, 400 PPM 6 HR/D 5 D/WK FOR 18 MO (STUDY DURATION: 18 MO), 25, 100, 400 PPM 6 HR/D 5 D/WK FOR 18 MO (STUDY DURATION: 18 MO)", "value": "inactive; negative"}, {"measurement": "carcinogen call", "setting": "Species: RAT, Strain/Sex: CRL:CD BR/FEMALE, Route: INHALATION, 25, 100, 400 PPM 6 HR/D 5 D/WK FOR 24 MO (STUDY DURATION: 24 MO), 25, 100, 400 PPM 6 HR/D 5 D/WK FOR 24 MO (STUDY DURATION: 24 MO)", "value": "inactive; negative"}, {"measurement": "carcinogen call", "setting": "Species: RAT, Strain/Sex: CRL:CD BR/MALE, Route: INHALATION, 25, 100, 400 PPM 6 HR/D 5 D/WK FOR 24 MO (STUDY DURATION: 24 MO), 25, 100, 400 PPM 6 HR/D 5 D/WK FOR 24 MO (STUDY DURATION: 24 MO)", "value": "inactive; negative"}]}, {"smiles": "O=P1(NCCCl)OCCCN1CCCl", "note": "(stereo not given)", "values": [{"measurement": "carcinogen call", "setting": "Species: MOUSE, Strain/Sex: B6C3F1/FEMALE, Route: INTRAPERITONEAL, 10, 20 MG/KG IN BUFFERED SALINE 3/WK FOR 52 WK (STUDY DURATION: 79-80 WK), 10, 20 MG/KG IN BUFFERED SALINE 3/WK FOR 52 WK (STUDY DURATION: 79-80 WK), Tumor Site: Type of Lesion: LYMPHATIC SYSTEM: MALIGNANT LYMPHOMA", "value": "active; positive"}, {"measurement": "carcinogen call", "setting": "Species: MOUSE, Strain/Sex: B6C3F1/MALE, Route: INTRAPERITONEAL, 10, 20 MG/KG IN BUFFERED SALINE 3/WK FOR 52 WK (STUDY DURATION: 79-80 WK), 10, 20 MG/KG IN BUFFERED SALINE 3/WK FOR 52 WK (STUDY DURATION: 79-80 WK)", "value": "inactive; negative"}, {"measurement": "carcinogen call", "setting": "Species: MOUSE, Strain/Sex: STRAIN-A/MALE,FEMALE, Route: INTRAPERITONEAL, 18.8, 47 MG/KG IN WATER 3/WK FOR 8 WK, 18.8, 47 MG/KG IN WATER 3/WK FOR 8 WK, Tumor Site: Type of Lesion: LUNG", "value": "active; positive"}, {"measurement": "carcinogen call", "setting": "Species: RAT, Strain/Sex: SPRAGUE-DAWLEY/FEMALE, Route: INTRAPERITONEAL, 6, 12 MG/KG IN BUFFERED SALINE 3/WK FOR 52 WK (STUDY DURATION: 79-83 WK), 6, 12 MG/KG IN BUFFERED SALINE 3/WK FOR 52 WK (STUDY DURATION: 79-83 WK), Tumor Site: Type of Lesion: MAMMARY GLAND: CYSTADENOMA OR CYSTADENOCARCINOMA, UTERUS: LEIOMYOSARCOMA;ADRENAL GLAND: CORTICAL ADENOMA, Tumor Site: Type of Lesion: MAMMARY GLAND: CYSTADENOMA OR CYSTADENOCARCINOMA, UTERUS: LEIOMYOSARCOMA;ADRENAL GLAND: CORTICAL ADENOMA", "value": "active; positive"}, {"measurement": "carcinogen call", "setting": "Species: RAT, Strain/Sex: SPRAGUE-DAWLEY/MALE, Route: INTRAPERITONEAL, 6, 12 MG/KG IN BUFFERED SALINE 3/WK FOR 52 WK (STUDY DURATION: 79-83 WK), 6, 12 MG/KG IN BUFFERED SALINE 3/WK FOR 52 WK (STUDY DURATION: 79-83 WK)", "value": "inactive; negative"}]}, {"smiles": "O=Cc1ccco1", "values": [{"measurement": "carcinogen call", "setting": "Species: MOUSE, Strain/Sex: B6C3F1/FEMALE, Route: GAVAGE, 50, 100, 175 MG/KG IN CORN OIL 5 D/WK FOR 103 WK (STUDY DURATION: 105 WK), 50, 100, 175 MG/KG IN CORN OIL 5 D/WK FOR 103 WK (STUDY DURATION: 105 WK), Tumor Site: Type of Lesion: LIVER: HEPATOCELLULAR ADENOMA, HEPATOCELLULAR ADENOMA OR CARCINOMA, FORESTOMACH: SQUAMOUS PAPILLOMA", "value": "active; positive"}, {"measurement": "carcinogen call", "setting": "Species: MOUSE, Strain/Sex: B6C3F1/MALE, Route: GAVAGE, 50, 100, 175 MG/KG IN CORN OIL 5 D/WK FOR 103 WK (STUDY DURATION: 105 WK), 50, 100, 175 MG/KG IN CORN OIL 5 D/WK FOR 103 WK (STUDY DURATION: 105 WK), Tumor Site: Type of Lesion: LIVER: HEPATOCELLULAR ADENOMA, HEPATOCELLULAR CARCINOMA", "value": "active; positive"}, {"measurement": "carcinogen call", "setting": "Species: MOUSE, Strain/Sex: CD-1/FEMALE, Route: DERMAL, 50 UMOL/0.1 ML DMSO 2/WK FOR 5 WK FOLLOWED 1 WK LATER BY 0.1 ML ACETONE 2/WK FOR 47 WK (STUDY DURATION: 52 WK)", "value": "inactive; negative"}, {"measurement": "carcinogen call", "setting": "Species: RAT, Strain/Sex: F344/FEMALE, Route: GAVAGE, 30, 60 MG/KG IN CORN OIL 5 D/WK FOR 103 WK (STUDY DURATION: 105 WK), 30, 60 MG/KG IN CORN OIL 5 D/WK FOR 103 WK (STUDY DURATION: 105 WK)", "value": "inactive; negative"}, {"measurement": "carcinogen call", "setting": "Species: RAT, Strain/Sex: F344/MALE, Route: GAVAGE, 30, 60 MG/KG IN CORN OIL 5 D/WK FOR 103 WK (STUDY DURATION: 105 WK), 30, 60 MG/KG IN CORN OIL 5 D/WK FOR 103 WK (STUDY DURATION: 105 WK), Tumor Site: Type of Lesion: BILE DUCT: CHOLANGIOCARCINOMA", "value": "active; positive"}]}]}
